Results: patent US6814960B1, “Hydroxystilbene compounds used as microbicidal active substances” (Ciba Specialty Chemicals Corporation, priority 1998, dated 2004)
Read-outs that look alike come from different tables or passages of the source.

Columns and labels:
Format in all cases: cell-based
[1] = system: Staphylococcus aureus ATCC 9144; assay: MIC in the agar diffusion test; conditions: for MIC: Staphylococcus aureus, read-out: MIC S. aureus
Description: (§1) Determination of the Minimum Inhibiting Concentration (MIC) in the Agar Diffusion Test

[2] = system: Candida albicans ATCC 10231; assay: MIC in the agar diffusion test; conditions: for MIC: Candida albicans, read-out: MIC C. albicans
Description: as §1

[3] = system: Escherichia coli NCTC 8196; assay: MIC in the agar diffusion test; conditions: for MIC: Escherichia coli, read-out: MIC E. coli
Description: as §1

[4] = system: Aspergillus niger ATCC 6275; assay: MIC in the agar diffusion test; conditions: for MIC: Aspergillus niger, ATCC6275, 72 h, read-out: MIC A. niger
Description: as §1

[5] = system: Escherichia coli NCTC 8196; assay: MIC value in microtitre plates (optical density); conditions: microtitre plate, CASO bouillon, 48 hours at 37° C., optical density 620 nm, ≦20% growth; some data indicative values
Description: (§2) Determination of the Minimum Inhibiting Concentration (MIC Value) in Microtitre Plates
(§3) Casein/soybean flour peptone bouillon for the preparation of the precultures of the test bacteria and yeast.
(§4) Mycological slant agar for the preculture of moulds.
(§5) Examples of Test Organisms
(§6) The test substances are predissolved in dimethyl sulfoxide (DMSO) and tested in a serial dilution of 1:2.
(§7) Bacteria and yeast are cultured overnight in CASO bouillon, the mould on mycological slant agar and rinsed off with 10 ml of 0.85% sodium chloride solution (+0.1% TritonX-100).
(§8) All test organisms are adjusted to an organism count of 1.5×10^6 CFU/ml with 0.85% sodium chloride solution.
(§9) The test substances are prepipetted into microtitre plates in an amount of 8 μl per well.
(§10) Previously diluted organism substances are diluted 1:100 in CASO bouillon (bacteria and yeast) and Sabouraud 2% glucose bouillon (mould) and added to the test substances in an amount of 192 μl per well.
(§11) The test batches are incubated for 48 hours at 37° C. (bacteria and yeast) or for 5 days at 28° C. (mould).
(§12) After incubation, the growth is determined by reference to the turbidity of the test batches (optical density) at 620 nm in a microplate reader.
(§13) The minimum inhibiting concentration (MIC value) is the concentration of substance at which (compared with the growth control) an appreciable inhibition of the growth (≦20% growth) of the test organisms is ascertained.
(§14) One microtiter plate is used for each test organism and substance concentration. All substances tested in duplicate.

[6] = system: Aspergillus niger ATCC 6275; assay: MIC value in microtitre plates (optical density); conditions: microtitre plate, Sabouraud 2% glucose bouillon, 5 days at 28° C., optical density 620 nm, ≦20% growth; some data indicative values
Description: as §2, §3, §4, §5, §6, §7, §8, §9, §10, §11, §12, §13, §14

[7] = system: Staphylococcus hominis DSM 20328; assay: MIC value in microtitre plates (optical density); conditions: microtitre plate, CASO bouillon, 48 hours at 37° C., optical density 620 nm, ≦20% growth; some data indicative values
Description: as §2, §3, §4, §5, §6, §7, §8, §9, §10, §11, §12, §13, §14

[8] = system: Pseudomonas aeruginosa CIP A-22; assay: MIC value in microtitre plates (optical density); conditions: microtitre plate, CASO bouillon, 48 hours at 37° C., optical density 620 nm, ≦20% growth; some data indicative values
Description: as §2, §3, §4, §5, §6, §7, §8, §9, §10, §11, §12, §13, §14

[9] = system: Candida albicans ATCC 10231; assay: MIC value in microtitre plates (optical density); conditions: microtitre plate, CASO bouillon, 48 hours at 37° C., optical density 620 nm, ≦20% growth; some data indicative values
Description: as §2, §3, §4, §5, §6, §7, §8, §9, §10, §11, §12, §13, §14

[10] = system: Pseudomonas aeruginosa CIP A-22; assay: MIC in the agar diffusion test; conditions: Mueller-Hinton agar, 24 hours at 37° C., solution in EtOH
Description: as §1

[11] = system: Corynebacterium xerosis ATCC 373; assay: MIC in the agar diffusion test; conditions: Mueller-Hinton agar, 24 hours at 37° C.; (103) solution in EtOH
Description: as §1

[12] = Mueller-Hinton agar, 24 hours at 37° C., (101), (103) solution in EtOH, others in DMSO
[13] = Sabouraud 4% glucose agar, 3 days at 28° C., (101) solution in EtOH, others in DMSO

Row | SMILES | MIC values E. coli [5] [ppm] | MIC values A. niger [6] [ppm] | MIC values S. heminis [7] [ppm] | MIC values P. aeruginosa [8] [ppm] | MIC values C. albicans [9] [ppm] | other results
1 | CN(C)c1ccc(/C=C/c2ccccc2)cc1 [Compound of formula (104)] | – | – | – | – | – | MIC S. aureus [1, 12]: 300 ppm; MIC C. albicans [2, 12]: 600 ppm
2 | Oc1cccc(/C=C/c2ccccc2)c1 [Compound of formula (102), 3-hydroxystilbene] | – | – | – | – | – | MIC ([3]; NCTC8196, 24 h): 100 µg/mL; MIC ([1]; ATCC9144, 24 h): 100 µg/mL; MIC [4]: 10 µg/mL; MIC ([2]; ATCC10231, 24 h): 100 µg/mL
3 | Oc1ccc(/C=C/c2ccc(Cl)cc2)cc1 [Compound of formula (106)] | – | – | – | – | – | MIC S. aureus [1, 12]: 10 ppm; MIC A. niger [4, 13]: 600 ppm
4 | COc1cc(/C=C/c2ccc(C)cc2)ccc1O [Comp. of formula 184] | >100 | 100 | >100 | >100 | >100 | –
5 | COc1ccc(/C=C/c2cc(O)c(OC)c(OC)c2)cc1 [Comp. of formula 138] | >100 | >100 | >100 | >100 | >100 | –
6 | COc1ccc(/C=C/c2ccccc2O)cc1 [Comp. of formula 137] | 100 | >100 | >100 | >100 | >100 | –
7 | Cc1ccc(/C=C/c2ccc(O)cc2)cc1 [Comp. of formula 180] | >100 | >100 | 100 | >100 | >100 | –
8 | Oc1cccc(/C=C/c2ccc(Cl)cc2)c1 [Comp. of formula 120] | 7.5 | 30 | 7.5 | >100 | 7.5 | –
9 | Oc1ccc(/C=C/c2cccc3ccccc23)cc1 [Comp. of formula 156] | 60 | 30 | 7.5 | >100 | 15 | –
10 | COc1cc(/C=C/c2ccccc2)ccc1O [Comp. of formula 111] | >100 | 100 | >100 | >100 | >100 | –
11 | Oc1ccccc1/C=C/c1cccc2ccccc12 [Comp. of formula 162] | 30 | 15 | 7.5 | >100 | 30 | –
12 | COc1ccc(/C=C/c2ccc(O)cc2)cc1 [Comp. of formula 131] | >100 | >100 | >100 | >100 | >100 | –
13 | Oc1ccc(/C=C/c2ccc(-c3ccccc3)cc2)cc1 [Comp. of formula 143] | >100 | >100 | >100 | >100 | >100 | –
14 | COc1ccc(/C=C/c2ccc(Cl)cc2)cc1O [Comp. of formula 121] | >100 | >100 | >100 | >100 | >100 | –
15 | CCOc1cc(/C=C/c2ccc(OC)cc2)ccc1O [Comp. of formula 134] | >100 | >100 | >100 | >100 | >100 | –
16 | Oc1cccc(/C=C/c2ccc(-c3ccccc3)cc2)c1 [Comp. of formula 145] | >100 | >100 | >100 | >100 | >100 | –
17 | Cc1cccc(/C=C/c2ccc(-c3ccccc3)cc2)c1O [Comp. of formula 153] | >100 | >100 | >100 | >100 | >100 | –
18 | COc1ccc(/C=C/c2ccccc2C)cc1O [Comp. of formula 170] | >100 | >100 | >100 | >100 | >100 | –
19 | Oc1ccccc1/C=C/c1ccc(-c2ccccc2)cc1 [Comp. of formula 150] | >100 | >100 | >100 | >100 | >100 | –
20 | Oc1cc(O)cc(C=Cc2ccccc2)c1 [Compound of formula (101), 3,5-dihydroxystilbene] | – | – | – | – | – | MIC ([3]; NCTC8196, Mueller-Hinton agar, 24 hours at 37° C., (101), (103) solution in EtOH, (102) in DMSO): 100 µg/mL; MIC ([1]; ATCC9144, Mueller-Hinton agar, 24 hours at 37° C., (101), (103) solution in EtOH, others in DMSO): 100 µg/mL; MIC [4, 13]: 100 µg/mL; MIC ([10]; Pseudomonas aeruginosa, CIPA22, read-out: MIC P. aeruginosa): 100 µg/mL; MIC ([2]; ATCC10231, Mueller-Hinton agar, 24 hours at 37° C., (101), (103) solution in EtOH, others in DMSO): 100 µg/mL
21 | Oc1cccc(/C=C/c2cccc3ccccc23)c1 [Comp. of formula 157] | 15 | 60 | 7.5 | >100 | 15 | –
22 | Oc1ccc(/C=C/c2cc(O)cc(O)c2)cc1 [Compound of formula (103)] | – | – | – | – | – | MIC E. coli ([3]; Mueller-Hinton agar, 24 hours at 37° C., (101), (103) solution in EtOH, (102) in DMSO): 600 ppm; MIC S. aureus [1, 12]: 600 ppm; MIC P. aeruginosa [10]: 600 ppm; MIC C. albicans [2, 12]: 600 ppm; MIC C. xerosis [11]: 100 ppm
23 | COc1ccc(/C=C/c2ccc(-c3ccccc3)cc2)cc1O [Comp. of formula 146] | >100 | >100 | >100 | >100 | >100 | –
24 | Cc1ccc(/C=C/c2cccc(C)c2O)cc1 [Comp. of formula 189] | 100 | >100 | >100 | >100 | >100 | –
25 | COc1cc(/C=C/c2ccccc2C)cc(O)c1OC [Comp. of formula 175] | 60 | 100 | 60 | 100 | 60 | –
26 | Oc1ccc(/C=C/c2ccccc2)cc1 [Comp. of formula 107] | >100 | 100 | 100 | >100 | >100 | –
27 | Oc1ccc(/C=C/c2ccc(Cl)cc2)cc1 [Comp. of formula 119] | >100 | 100 | 7.5 | >100 | 15 | –
